Test results: patent US20240270744A1 (Hoffmann-La Roche Inc., priority 2021, published 2024)

Legend:
[1] = target: human GABAA α5β2γ1 receptor (Homo sapiens (Human), UniProt P31644+Q8N1C3); test: Radioligand binding assay, competition for [3H]RO7239181, γ1-containing GABAA subtypes; conditions: Table 1; [3H]RO7239181 displacement, membranes from HEK293F cells, mean of two determinations
Description: The affinity of compounds at GABAA γ1 subunit-containing receptors was measured by competition for [^3H]RO7239181 (67.3 Ci/mmol; Roche) binding to membranes from HEK293F cells (ThermoFisher R79007) expressing human (transiently transfected) receptors of composition α5β2γ1, α2β2γ1, α1β2γ1. For better protein expression of the α2 subunit-containing receptors, the 28 amino acid long signal peptide (Met1 to Ala28) of the human GABAA α2 subunit was substituted by the 31 amino acid long signal peptide (Met1 to Ser31) of human GABAA α5 subunit.
Harvested pellets from HEK293F cells expressing the different GABAA receptor subtypes were resuspended in Mannitol Buffer pH 7.2-7.4 (Mannitol 0.29 M, Triethylamine 10 mM, Acetic acid 10 mM, EDTA 1 mM plus protease inhibitors (20 tablets Complete, Roche Diagnostics Cat. No. 05 056 489 001 per liter)), washed two times and then resuspended at 1:10 to 1:15 dilution in the same buffer. Cell disruption was performed by stirring the suspension in a Parr vessel #4637 at 435 psi for 15 minutes, and then the suspensions were centrifuged at 1000×g for 15 minutes at 4° C. (Beckman Avanti J-HC: rotor JS-4.2). The supernatant (S1) was transferred in a 21 Schott flask and the pellet (P1) was resuspended with Mannitol Buffer up to 175 ml. The resuspended pellet was transferred into a 250 ml Corning centrifugal beaker and centrifuged at 1500×g for 10 minutes at 4° C. (Beckman Avanti J-HC: rotor JS-4.2). The supernatant (S1) was then transferred in the 21 Schott flask and the pellet was discarded. The supernatants (S1) were centrifuged in 500 ml Beckman polypropylene centrifugal beaker at 15′000×g for 30 minutes at 4° C. (Beckman Avanti J-20 XP; rotor JLA-10.500). The pellet (P2) was resuspended with Mannitol Buffer 1:1 and frozen at −80° C. The supernatant (S2) was centrifuged in 100 ml Beckman polypropylene centrifugal tubes at 48000×g for 50 minutes at 4° C. (Beckman Avanti J-20 XP; rotor JA-18). The supernatant (S3) was discarded and the pellet (P3) was resuspended with 1:1 Mannitol Buffer. The P2 and P3 protein concentration was determined with the BIORAD Standard assay method with bovine serum albumin as standard and measured on the NANO-Drop 1000. The membrane suspension was aliquots (500 μl per tube) and stored at −80° C. until required.
Membrane homogenates were resuspended and polytronised (Polytron PT1200E Kinematica AG) in Potassium Phosphate 10 mM, KCl 100 mM binding buffer at pH 7.4 to a final assay concentration determined with a previous experiment.
Radioligand binding assays were carried out in a volume of 200 μL (96-well plates) which contained 100 μL of cell membranes, [3H]RO7239181 at a concentration of 1.5 nM (α5β2γ1) or 20-30 nM (α1β2γ1, α2β2γ1) and the test compound in the range of [0.3-10000]=10^−9 M. Nonspecific binding was defined by 10×10^−6 (α5β2γ1) and 30×10^−6 M RO7239181 and typically represented less than 5% (α5β2γ1) and less than 20% (β1β2γ1, α2β2γ1) of the total binding. Assays were incubated to equilibrium for 1 hour at 4° C. and then, membranes were filtered onto unifilter (96-well white microplate with bonded GF/C filters preincubated 20-50 minutes in 0.3% Polyethylenimine) with a Filtermate 196 harvester (Packard BioScience) and washed 4 times with cold Potassium Phosphate 10 mM pH 7.4, KCl 100 mM binding buffer. After anhydrousing, filter-retained radioactivity was detected by liquid scintillation counting. Ki values were calculated using Excel-Fit (Microsoft) and are the means of two determinations.
Representative test results, obtained by the above described assay measuring binding affinity to HEK293 cells expressing human (h) receptors, are shown in the Table 1.

[2] = target: human GABAA α1β2γ1 receptor (Homo sapiens (Human), UniProt P14867+Q8N1C3); test: as above
[3] = Table 1, [3H]RO7239181 displacement, membranes from HEK293F cells, mean of two determinations
[4] = Table 3, reference compounds comparison

| Structure (SMILES) | Ki [1] [nM] | Ki [2, 3] [nM] | Ki [2, 4] [nM] |
| --- | --- | --- | --- |
| Cc1nnc2n1-c1cnc(Cl)c(Cl)c1C(c1c(F)cccc1F)=N[C@H]2C [Example 1, (7S)-11,12-dichloro-9-(2,6-difluorophenyl)-3,7-dimethyl-2,4,5,8,13-pentazatricyclo[8.4.0.02,6]tetradeca-1(10),3,5,8,11,13-hexaene] | 2.4 |  |  |
| Cc1nnc2n1-c1cnc(C3CC3)c(Cl)c1C(c1c(F)cccc1F)=N[C@H]2C [Example 2, (7S)-11-chloro-12-cyclopropyl-9-(2,6-difluorophenyl)-3,7-dimethyl-2,4,5,8,13-pentazatricyclo[8.4.0.02,6]tetradeca-1(10),3,5,8,11,13-hexaene] | 12.6 |  |  |
| Cc1ncc2c(c1Cl)C(c1c(F)cccc1F)=N[C@@H](C)c1nnc(C)n1-2 [Example 3, (7S)-11-chloro-9-(2,6-difluorophenyl)-3,7,12-trimethyl-2,4,5,8,13-pentazatricyclo[8.4.0.02,6]tetradeca-1(10),3,5,8,11,13-hexaene] | 4.7 |  |  |
| Cc1nnc2n1-c1cnc(C(F)(F)F)c(Cl)c1C(c1c(F)cccc1F)=N[C@H]2C [Example 4, (7S)-11-chloro-9-(2,6-difluorophenyl)-3,7-dimethyl-12-(trifluoromethyl)-2,4,5,8,13-pentazatricyclo[8.4.0.02,6]tetradeca-1(10),3,5,8,11,13-hexaene] | 4.9 | 51.6 | 51.6 |
| Cc1nc2n(n1)-c1cnc(C(F)(F)F)c(Cl)c1C(c1c(F)cccc1F)=N[C@H]2C [Example 5] | 1.7 |  |  |
| C[C@@H]1N=C(c2c(F)cccc2F)c2c(cnc(C(F)(F)F)c2Cl)-n2nc(C(=O)N3CCC3)nc21 [Example 6, azetidin-1-yl-[(7S)-11-chloro-9-(2,6-difluorophenyl)-7-methyl-12-(trifluoromethyl)-2,3,5,8,13-pentazatricyclo[8.4.0.02,6]tetradeca-1(10),3,5,8,11,13-hexaen-4-yl]methanone] | 11.6 |  |  |
| C[C@@H]1N=C(c2c(F)cccc2F)c2c(cnc(C(F)(F)F)c2Cl)-n2nc(C(=O)N3CC(F)C3)nc21 [Example 7, [(7S)-11-chloro-9-(2,6-difluorophenyl)-7-methyl-12-(trifluoromethyl)-2,3,5,8,13-pentazatricyclo[8.4.0.02,6]tetradeca-1(10),3,5,8,11,13-hexaen-4-yl]-(3-fluoroazetidin-1-yl)methanone] | 3.5 |  |  |
| C[C@@H]1N=C(c2c(F)cccc2F)c2c(cnc(C(F)(F)F)c2Cl)-n2nc(C(=O)N3CC(O)C3)nc21 [Example 8, [(7S)-11-chloro-9-(2,6-difluorophenyl)-7-methyl-12-(trifluoromethyl)-2,3,5,8,13-pentazatricyclo[8.4.0.02,6]tetradeca-1(10),3,5,8,11,13-hexaen-4-yl]-(3-hydroxyazetidin-1-yl)methanone] | 2.5 | 48.8 |  |
| COC1CN(C(=O)c2nc3n(n2)-c2cnc(C(F)(F)F)c(Cl)c2C(c2c(F)cccc2F)=N[C@H]3C)C1 [Example 9, [(7S)-11-chloro-9-(2,6-difluorophenyl)-7-methyl-12-(trifluoromethyl)-2,3,5,8,13-pentazatricyclo[8.4.0.02,6]tetradeca-1(10),3,5,8,11,13-hexaen-4-yl]-(3-methoxyazetidin-1-yl)methanone] | 7.1 | 45.8 |  |
| C[C@@H]1N=C(c2c(F)cccc2F)c2c(cnc(C(F)(F)F)c2Cl)-n2nc(C(=O)N3CC(C)(O)C3)nc21 [Example 10, [(7S)-11-chloro-9-(2,6-difluorophenyl)-7-methyl-12-(trifluoromethyl)-2,3,5,8,13-pentazatricyclo[8.4.0.02,6]tetradeca-1(10),3,5,8,11,13-hexaen-4-yl]-(3-hydroxy-3-methyl-azetidin-1-yl)methanone] | 3 | 80.5 | 80.5 |
| C[C@@H]1N=C(c2c(F)cccc2F)c2c(cnc(C(F)(F)F)c2Cl)-n2nc(C(=O)N3CCS(=O)(=O)CC3)nc21 [Example 11, [(7S)-11-chloro-9-(2,6-difluorophenyl)-7-methyl-12-(trifluoromethyl)-2,3,5,8,13-pentazatricyclo[8.4.0.02,6]tetradeca-1(10),3,5,8,11,13-hexaen-4-yl]-(1,1-dioxo-1,4-thiazinan-4-yl)methanone] | 4.6 | 45.8 |  |
| C[C@@H]1N=C(c2c(F)cccc2F)c2c(cnc(C(F)(F)F)c2Cl)-n2nc(NC(=O)C3COC3)nc21 [Example 12, N-[(7S)-11-chloro-9-(2,6-difluorophenyl)-7-methyl-12-(trifluoromethyl)-2,3,5,8,13-pentazatricyclo[8.4.0.02,6]tetradeca-1(10),3,5,8,11,13-hexaen-4-yl]oxetane-3-carboxamide] | 5.2 |  |  |
| C[C@@H]1N=C(c2c(F)cccc2F)c2c(cnc(C(F)(F)F)c2Cl)-n2nc(N3CCCC3=O)nc21 [Example 13, 1-[(7S)-11-chloro-9-(2,6-difluorophenyl)-7-methyl-12-(trifluoromethyl)-2,3,5,8,13-pentazatricyclo[8.4.0.02,6]tetradeca-1(10),3,5,8,11,13-hexaen-4-yl]pyrrolidin-2-one] | 3.1 |  |  |
| C[C@H](O)CNC(=O)c1nc2n(n1)-c1cnc(C(F)(F)F)c(Cl)c1C(c1c(F)cccc1F)=N[C@H]2C [Example 14, (7S)-11-chloro-9-(2,6-difluorophenyl)-N-[(2S)-2-hydroxypropyl]-7-methyl-12-(trifluoromethyl)-2,3,5,8,13-pentazatricyclo[8.4.0.02,6]tetradeca-1(10),3,5,8,11,13-hexaene-4-carboxamide] | 3.7 | 91.8 |  |
| C[C@@H]1N=C(c2c(F)cccc2F)c2c(cnc(C(F)(F)F)c2Cl)-n2nc(C(=O)NCCO)nc21 [Example 15, (7S)-11-chloro-9-(2,6-difluorophenyl)-N-(2-hydroxyethyl)-7-methyl-12-(trifluoromethyl)-2,3,5,8,13-pentazatricyclo[8.4.0.02,6]tetradeca-1(10),3,5,8,11,13-hexaene-4-carboxamide] | 2.6 | 114 |  |
| C[C@@H]1N=C(c2c(F)cccc2F)c2c(cnc(C(F)(F)F)c2Cl)-n2c1nc1c2CCC1 [Example 20, (10S)-6-chloro-8-(2,6-difluorophenyl)-10-methyl-5-(trifluoromethyl)-1,4,9,12-tetrazatetracyclo[9.6.0.02,7.013,17]heptadeca-2(7),3,5,8,11,13(17)-hexaene] | 4.9 |  |  |
| C[C@@H]1N=C(c2c(F)cccc2F)c2c(cnc(C(F)(F)F)c2Cl)-n2nc(C(=O)NCC(C)(C)O)nc21 [Example 21, (7S)-11-chloro-9-(2,6-difluorophenyl)-N-(2-hydroxy-2-methyl-propyl)-7-methyl-12-(trifluoromethyl)-2,3,5,8,13-pentazatricyclo[8.4.0.02,6]tetradeca-1(10),3,5,8,11,13-hexaene-4-carboxamide] | 10.7 |  |  |
| C[C@@H]1N=C(c2c(F)cccc2F)c2c(cnc(C(F)(F)F)c2Cl)-n2nc(C(=O)NCC3(O)CC3)nc21 [Example 22, (7S)-11-chloro-9-(2,6-difluorophenyl)-N-[(1-hydroxycyclopropyl)methyl]-7-methyl-12-(trifluoromethyl)-2,3,5,8,13-pentazatricyclo[8.4.0.02,6]tetradeca-1(10),3,5,8,11,13-hexaene-4-carboxamide] | 6.4 |  |  |
